“And” between values parts separate entries of the source, which are not always exact repeats. Identical values can stand only once. Like-named read-outs stand apart in the source and are kept apart here.
Tests used:
[1] = tested on: Saccharomyces cerevisiae ATCC 44774; assay: Yeast sensitivity on YPGE agar; type: cell-based
Description: (§1) Example 4. […] From a single overnight grown colony of each yeast strain, 25 mL of yeast extract-peptone-dextrose (YPD) broth were inoculated and grown for 16 hours at 30° C. and 150 rpm.

Kluyveromyces marxianus = assay: Yeast sensitivity on YPGE agar; type: cell-based
Description: as §1

Kluyvermyces lactis = assay: Yeast sensitivity on YPGE agar; type: cell-based
Description: as §1

[2] = tested on: N. benthamiana leaf explants; assay: Killing curve for tobacco leaf explants; type: cell-based; conditions: for shoot induction observed (share of plates): after 30 days; for explants exhibiting necrosis: 200 μg/mL, after 7 days, MS solid medium
Source text: FIG. 6. Doxycycline killing curve for N. benthamiana leaf explants.

[3] = tested on: Jalapeño hypocotyl, epicotyl and shoot tip tissues; assay: Sensitivity of Jalapeño explants; type: cell-based; conditions: 200 μg/mL; initially evaluated after 15 days
[4] = tested on: C. reinhardtii strain CC-849
Description: Glass bead transformation C. reinhardtii strain CC-849 was transformed with supercoiled plasmid DNA of Atetx, Btetx, pKS-aphVIII or pSP124S (Table 4) by the glass bead method. Briefly, the algae were grown at 25° C. with a 18/6 (light/dark) photoperiod in TAP media to mid-log phase (1-2×10^6 cells/mL), the cells were harvested by centrifugation 5 min. at 5000 g, the growth medium was removed and fresh TAP was added to achieve a cell concentration of 2×10^8 cells/mL. 300 μL of the cell suspension were placed in a 1.5 mL centrifuge tube containing 0.3 g of sterile 0.4-0.6 mm diameter glass beads (Sigma, St. Louis, Mo.) and 1×10^−12 mols of the desired plasmid DNA. The cell/DNA/glass bead suspensions were vortexed 15 s at maximum power in a VWR mini vortex. The cells were transferred to a glass tube with 5 mL of fresh TAP media and incubated at 25° C. overnight with a 8/6 (light/dark) photoperiod. After 14 hours the cells were concentrated by centrifugation at 5,000 g for 15 minutes and resuspended in TAP media to yield either 3×10^7 cells/mL of pKS-aphVIII and pSP124S transformants and 2.5×10^6, 5×10^6, 1×10^7 or 3×10^7 cells/mL for tetx transformants. […] When colonies appeared, they were streaked on to selective TAP agar plates.
C. reinhardtii strain CC-849 was transformed with supercoiled plasmid DNA of AtetX and BtetX, by the glass bead method. […]

Pichia pastoris = assay: Yeast sensitivity on YPGE agar; type: cell-based; conditions: 10^6 cells plated
Description: as §1

[5] = 10^5 cells plated, 2 days of incubation

Row | SMILES | concentration at which growth was inhibited ([1]; 2 days of incubation, cell number not clearly stated) | concentration at which growth was inhibited (Kluyveromyces marxianus; [5]) [µg/mL] | concentration at which growth was inhibited (Kluyveromyces marxianus; 10^6 cells plated) | concentration at which growth was inhibited (Kluyvermyces lactis; [5]) | shoot induction observed (share of plates) ([2]; 15 μg/mL) [%] | shoot induction observed (share of plates) ([2]; 25 μg/mL) [%] | explants exhibiting necrosis [2] [%] | explants exhibiting necrosis [3] [%] | decrease of number of positive colonies compared to 15 μg/mL ([4]; tetracycline 25 μg/mL for selection of primary transformants) | decrease of number of positive colonies compared to 15 μg/mL ([4]; tetracycline 50 μg/mL for selection of primary transformants) | concentration at which growth was inhibited ([1]; 10^5 cells plated) [µg/mL] | concentration at which growth was inhibited ([1]; 10^7 cells plated) [µg/mL] | concentration at which growth was inhibited (Pichia pastoris) [µg/mL] | concentration at which growth was inhibited (Kluyveromyces marxianus; 10^7 cells plated) [µg/mL] | concentration at which growth was inhibited (Kluyvermyces lactis; 10^6 cells plated) | concentration at which growth was inhibited (Kluyvermyces lactis; 10^7 cells plated) [µg/mL]
1 | CN(C)[C@@H]1C(O)=C(C(N)=O)C(=O)[C@@]2(O)C(O)=C3C(=O)c4c(O)cccc4[C@@](C)(O)[C@H]3C[C@@H]12 [tetracycline, Tetracycline] | 500 µg/mL and 750 µg/mL and 1000 µg/mL | 350 to 1000 | 1000 µg/mL | 750 µg/mL and 1000 µg/mL | 50 | 50 | 100 | 100 | approximately 75% | approximately 75% |  |  |  |  |  | 
2 | C[C@H]1c2cccc(O)c2C(=O)C2=C(O)[C@]3(O)C(=O)C(C(N)=O)=C(O)[C@@H](N(C)C)[C@@H]3[C@@H](O)[C@@H]21 [doxycycline] |  |  | 675 µg/mL and 1000 µg/mL |  |  |  | 100 | 100 |  |  | 1000 | 1000 | 1000 | 1000 | 675 µg/mL and 1000 µg/mL | 1000

— patent publication US20170015979A1 (Instituto Tecnológico y de Estudios Superiores de Monterrey, priority 2015, published 2017)
